According to ChEMBL document CHEMBL5143727, “Cytotoxic and Antibacterial Isomalabaricane Terpenoids from the Sponge Rhabdastrella globostellata” (J Nat Prod, 2022):
≈ marks a conversion by molar mass, not a printed value. Calls of active or inactive are those of the source. The rule behind the calls is not given here.

Key:
[1] = system: Streptococcus pyogenes; assay: Antibacterial activity against Streptococcus pyogenes ATCC 12344 assessed as bacterial growth inhibition incubated for 24 hrs by microdilution assay; format: functional
[2] = system: Staphylococcus aureus; assay: Antibacterial activity against Staphylococcus aureus USA300 LAC assessed as bacterial growth inhibition incubated for 24 hrs by microdilution assay; format: functional, organism-based
[3] = system: HCT-116; assay: Cytotoxicity against human HCT-116 cells harboring p53-/- assessed as inhibition of cell proliferation incubated for 72 hrs by MTT assay; format: functional, cell-based
[4] = system: HCT-116; assay: Cytotoxicity against human HCT-116 cells harboring wild type p53 assessed as inhibition of cell proliferation incubated for 72 hrs by MTT assay; format: functional, cell-based; details: for IC50: HCT-116, 72 h
[5] = system: HL-60; assay: Cytotoxicity against human HL-60 cells harboring wild type FLT3 assessed as inhibition of cell proliferation incubated for 72 hrs by MTT assay; format: functional, cell-based; details: for IC50: HL-60, 72 h
[6] = system: MV4-11; assay: Cytotoxicity against human MV4-11 cells harboring FLT3-ITD mutant assessed as inhibition of cell proliferation incubated for 72 hrs by MTT assay; format: functional, cell-based; details: for IC50: MV4-11, 72 h
[7] = system: U-87 MG; assay: Cytotoxicity against human U87 cells harboring wild type IDH1 assessed as inhibition of cell proliferation incubated for 72 hrs by MTT assay; format: functional, cell-based; details: U-87MG ATCC
[8] = system: U-87 MG; assay: Cytotoxicity against human U87 cells harboring IDH1-R132H mutant assessed as inhibition of cell proliferation incubated for 72 hrs by MTT assay; format: functional, cell-based; details: U-87MG ATCC

Compound | MIC [1] | Activity [2] | Activity [3] | Activity [7] | Activity [8] | further results
CC(=O)/C=C\C(=O)/C(C)=C/C=C/C(C)=C1/C(=O)C[C@H]2[C@@]3(C)CCC(=O)C(C)(C)[C@@H]3CC[C@]12C | 0.1 µg/mL (≈ 0.222 µM) | Active | – | – | – | –
CC(=O)O[C@H]1CC[C@@]2(C)[C@@H](CC[C@]3(C)/C(=C(C)/C=C/C=C(\C)[C@H]4CC=C(C)C(=O)O4)C(=O)C[C@@H]23)C1(C)C | – | – | Active | – | – | IC50 [4]: 2490 nM; IC50 [5]: 42 nM; IC50 [6]: 280 nM
CC(=O)/C=C/C(=O)/C(C)=C/C=C/C(C)=C1/C(=O)C[C@H]2[C@@]3(C)CCC(=O)C(C)(C)[C@@H]3CC[C@]12C | 1.8 µg/mL (≈ 3.99 µM) | Active | – | – | – | –
CC(=O)/C=C\C(=O)/C(C)=C/C=C/C(C)=C1/C(=O)C[C@H]2[C@@]3(C)CC[C@H](OC(C)=O)C(C)(C)[C@@H]3CC[C@]12C | 1 µg/mL (≈ 2.02 µM) | Active | – | – | – | –
CC1=CC[C@@H](/C(C)=C/C=C/C(C)=C2\C(=O)C[C@H]3[C@@]4(C)CCC(=O)C(C)(C)[C@@H]4CC[C@]23C)OC1=O | – | – | Active | Active | Active | Activity [4]: Active; Activity [5]: Active; Activity [6]: Active
CC(=O)/C=C/C(=O)/C(C)=C/C=C/C(C)=C1\C(=O)C[C@H]2[C@@]3(C)CCC(=O)C(C)(C)[C@@H]3CC[C@]12C [GEODITIN A] | 0.9 µg/mL (≈ 2 µM) | Active | – | – | – | –
CC(=O)/C=C\C(=O)/C(C)=C/C=C/C(C)=C1\C(=O)C[C@H]2[C@@]3(C)CCC(=O)C(C)(C)[C@@H]3CC[C@]12C [ISOGEODITIN A] | 0.4 µg/mL (≈ 0.888 µM) | Active | – | – | – | –
CC(=O)/C=C\C(=O)/C(C)=C/C=C/C(C)=C1\C(=O)C[C@H]2[C@@]3(C)CC[C@H](OC(C)=O)C(C)(C)[C@@H]3CC[C@]12C [ISOGEODITIN B] | 1.9 µg/mL (≈ 3.84 µM) | – | – | – | – | –
C\C(=C/C=C/C(C)=C1/C(=O)C[C@H]2[C@@]3(C)CCC(=O)C(C)(C)[C@@H]3CC[C@]12C)c1ccc(C)c(=O)o1 [STELLETIN A] | 1.8 µg/mL (≈ 3.89 µM) | – | Active | Active | Active | Activity [4]: Active; Activity [5]: Active; Activity [6]: Active
CC(=O)O[C@H]1CC[C@@]2(C)[C@@H](CC[C@]3(C)\C(=C(C)/C=C/C=C(\C)c4ccc(C)c(=O)o4)C(=O)C[C@@H]23)C1(C)C [STELLETTIN C] | 2 µg/mL (≈ 3.95 µM) | – | Active | Active | Active | Activity [4]: Active; Activity [5]: Active; Activity [6]: Active
CC(=O)O[C@H]1CC[C@@]2(C)[C@@H](CC[C@]3(C)/C(=C(C)/C=C/C=C(\C)c4ccc(C)c(=O)o4)C(=O)C[C@@H]23)C1(C)C [STELLETTIN D] | 2 µg/mL (≈ 3.95 µM) | – | Active | Active | Active | IC50 [4]: 2350 nM; IC50 [5]: 15 nM; IC50 [6]: 390 nM
